From patent US10231954B2, “Neurodegenerative therapies” (LYTIX BIOPHARMA AS, priority 2014, dated 2019)

Columns and labels:
[1] = target: RSK1 (Homo sapiens, UniProt Q15418); assay: Kinase profiling RSK1; format: biochemical; settings: 100 micromolar inhibitor concentration, 100 is no change; for remaining activity at 100 µM: read-out: residual kinase activity, RSK1
Description: (§1) Any value less that 25 is considered to be highly significant inhibition.

[2] = target: T1, PDK1 (Homo sapiens, UniProt O15530); assay: Kinase profiling PDK1; format: biochemical; settings: 100 micromolar inhibitor concentration, 100 is no change; for remaining activity at 100 µM: read-out: residual kinase activity, PDK1
T1 sequence (O15530 1-556): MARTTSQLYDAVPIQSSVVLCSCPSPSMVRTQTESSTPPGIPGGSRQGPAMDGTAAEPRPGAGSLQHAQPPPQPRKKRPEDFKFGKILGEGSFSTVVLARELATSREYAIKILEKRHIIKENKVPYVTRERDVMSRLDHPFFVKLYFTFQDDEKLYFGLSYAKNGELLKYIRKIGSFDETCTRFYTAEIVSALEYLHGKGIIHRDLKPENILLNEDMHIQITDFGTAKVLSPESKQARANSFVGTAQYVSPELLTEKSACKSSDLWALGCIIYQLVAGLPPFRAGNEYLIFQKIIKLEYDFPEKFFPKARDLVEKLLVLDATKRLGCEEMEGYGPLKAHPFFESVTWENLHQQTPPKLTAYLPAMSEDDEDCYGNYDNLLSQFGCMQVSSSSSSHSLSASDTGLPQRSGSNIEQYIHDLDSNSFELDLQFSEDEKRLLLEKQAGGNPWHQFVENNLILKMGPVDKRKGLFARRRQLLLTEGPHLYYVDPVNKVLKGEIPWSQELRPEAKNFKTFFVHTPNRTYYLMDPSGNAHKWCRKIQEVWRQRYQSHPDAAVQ
Description: as §1

[3] = tested on: AMPK (hum); assay: Kinase profiling AMPK (hum); format: biochemical, human; settings: 100 micromolar inhibitor concentration; 100 is no change
Description: as §1

[4] = target: MARK3 (Homo sapiens, UniProt P27448); assay: Kinase profiling MARK3; format: biochemical; settings: 100 micromolar inhibitor concentration, 100 is no change; for remaining activity at 100 µM: read-out: residual kinase activity, MARK3
Description: as §1

[5] = target: DYRK1A (Homo sapiens, UniProt Q13627); assay: DYRK 1A assay (kinase profiling); format: biochemical; settings: 100 micromolar inhibitor concentration, 100 is no change; for remaining activity at 100 µM: read-out: residual kinase activity, DYRK1A
Experimental: Assays are stopped by addition of 5 μl of 0.5 M (3%) orthophosphoric acid and then harvested onto P81 Unifilter plates with a wash buffer of 50 mM orthophosphoric acid.
as §1

[6] = target: T2, TBK1 (Homo sapiens, UniProt Q9UHD2); assay: Kinase profiling TBK1; format: biochemical; settings: 100 micromolar inhibitor concentration, 100 is no change; for remaining activity at 100 µM: read-out: residual kinase activity, TBK1
T2 sequence (Q9UHD2 1-729): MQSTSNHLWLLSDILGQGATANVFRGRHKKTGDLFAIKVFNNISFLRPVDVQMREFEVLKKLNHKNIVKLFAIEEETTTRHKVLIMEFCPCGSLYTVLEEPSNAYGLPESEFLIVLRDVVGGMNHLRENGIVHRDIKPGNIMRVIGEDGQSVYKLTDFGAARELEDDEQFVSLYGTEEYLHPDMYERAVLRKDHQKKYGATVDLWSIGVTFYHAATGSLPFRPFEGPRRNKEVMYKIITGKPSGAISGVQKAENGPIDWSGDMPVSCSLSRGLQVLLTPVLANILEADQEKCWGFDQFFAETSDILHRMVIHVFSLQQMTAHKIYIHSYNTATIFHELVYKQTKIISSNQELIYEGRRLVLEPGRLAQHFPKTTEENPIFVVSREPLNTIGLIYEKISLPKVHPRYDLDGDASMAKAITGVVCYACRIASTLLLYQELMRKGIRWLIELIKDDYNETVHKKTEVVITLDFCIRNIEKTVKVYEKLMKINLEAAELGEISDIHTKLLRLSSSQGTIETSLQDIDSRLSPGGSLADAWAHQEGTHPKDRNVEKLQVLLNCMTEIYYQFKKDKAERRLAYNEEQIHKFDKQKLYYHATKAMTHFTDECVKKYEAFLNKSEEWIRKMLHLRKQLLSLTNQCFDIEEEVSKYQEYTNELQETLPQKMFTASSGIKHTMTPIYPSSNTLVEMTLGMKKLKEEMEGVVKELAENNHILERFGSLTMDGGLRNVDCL
Description: as §1

[7] = target: PIM1 (Homo sapiens, UniProt P11309); assay: Kinase profiling PIM1; format: biochemical; settings: 100 micromolar inhibitor concentration, 100 is no change; for remaining activity at 100 µM: read-out: residual kinase activity, PIM1
Description: as §1

[8] = target: EF2K (Homo sapiens, UniProt O00418); assay: Kinase profiling EF2K; format: biochemical; settings: 100 micromolar inhibitor concentration, 100 is no change; for remaining activity at 100 µM: read-out: residual kinase activity, EF2K
Description: as §1

[9] = target: HIPK2 (Homo sapiens, UniProt Q9H2X6); assay: Kinase profiling HIPK2; format: biochemical; settings: 100 micromolar inhibitor concentration, 100 is no change; for remaining activity at 100 µM: read-out: residual kinase activity, HIPK2
Description: as §1

[10] = target: T3, IRAK4 (Homo sapiens, UniProt Q9NWZ3); assay: Kinase profiling IRAK4; format: biochemical; settings: 100 micromolar inhibitor concentration, 100 is no change; for remaining activity at 100 µM: read-out: residual kinase activity, IRAK4
T3 sequence (Q9NWZ3 1-460): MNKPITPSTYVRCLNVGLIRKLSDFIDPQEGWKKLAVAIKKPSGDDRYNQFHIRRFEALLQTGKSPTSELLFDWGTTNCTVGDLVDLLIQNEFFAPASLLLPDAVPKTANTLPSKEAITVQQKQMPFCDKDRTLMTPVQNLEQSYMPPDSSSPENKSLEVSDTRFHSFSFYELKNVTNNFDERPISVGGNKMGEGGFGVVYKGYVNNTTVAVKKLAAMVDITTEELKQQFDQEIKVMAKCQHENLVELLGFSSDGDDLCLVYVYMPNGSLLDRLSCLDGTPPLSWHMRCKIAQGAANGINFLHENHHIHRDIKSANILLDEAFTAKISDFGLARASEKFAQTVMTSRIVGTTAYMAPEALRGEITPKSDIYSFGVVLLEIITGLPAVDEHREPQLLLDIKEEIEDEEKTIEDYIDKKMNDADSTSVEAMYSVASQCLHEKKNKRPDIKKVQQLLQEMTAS
Description: as §1

[11] = target: Src (Homo sapiens, UniProt P12931); assay: Kinase profiling Src; format: biochemical; settings: 100 micromolar inhibitor concentration, 100 is no change; for remaining activity at 100 µM: read-out: residual kinase activity, Src
Description: as §1

[12] = target: Lck (Homo sapiens, UniProt P06239); assay: Kinase profiling Lck; format: biochemical; settings: 100 micromolar inhibitor concentration, 100 is no change; for remaining activity at 100 µM: read-out: residual kinase activity, Lck
Description: as §1

[13] = target: SYK (Homo sapiens, UniProt P43405); assay: Kinase profiling SYK; format: biochemical; settings: 100 micromolar inhibitor concentration, 100 is no change; for remaining activity at 100 µM: read-out: residual kinase activity, SYK
Description: as §1

[14] = tested on: VEG-FR; assay: Kinase profiling VEG-FR; format: biochemical; settings: 100 micromolar inhibitor concentration; 100 is no change
Description: as §1

PIM1, sequence (P11309 whole entry, species assumed): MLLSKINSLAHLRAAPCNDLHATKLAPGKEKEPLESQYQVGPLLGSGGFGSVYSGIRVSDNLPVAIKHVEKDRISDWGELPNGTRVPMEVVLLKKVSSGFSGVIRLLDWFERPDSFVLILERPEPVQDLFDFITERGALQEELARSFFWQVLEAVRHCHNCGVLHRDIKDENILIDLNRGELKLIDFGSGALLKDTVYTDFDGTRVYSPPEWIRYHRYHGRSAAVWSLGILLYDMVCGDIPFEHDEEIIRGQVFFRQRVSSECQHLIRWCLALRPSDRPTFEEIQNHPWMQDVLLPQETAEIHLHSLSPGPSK
RSK1, sequence (Q15418 whole entry, species assumed): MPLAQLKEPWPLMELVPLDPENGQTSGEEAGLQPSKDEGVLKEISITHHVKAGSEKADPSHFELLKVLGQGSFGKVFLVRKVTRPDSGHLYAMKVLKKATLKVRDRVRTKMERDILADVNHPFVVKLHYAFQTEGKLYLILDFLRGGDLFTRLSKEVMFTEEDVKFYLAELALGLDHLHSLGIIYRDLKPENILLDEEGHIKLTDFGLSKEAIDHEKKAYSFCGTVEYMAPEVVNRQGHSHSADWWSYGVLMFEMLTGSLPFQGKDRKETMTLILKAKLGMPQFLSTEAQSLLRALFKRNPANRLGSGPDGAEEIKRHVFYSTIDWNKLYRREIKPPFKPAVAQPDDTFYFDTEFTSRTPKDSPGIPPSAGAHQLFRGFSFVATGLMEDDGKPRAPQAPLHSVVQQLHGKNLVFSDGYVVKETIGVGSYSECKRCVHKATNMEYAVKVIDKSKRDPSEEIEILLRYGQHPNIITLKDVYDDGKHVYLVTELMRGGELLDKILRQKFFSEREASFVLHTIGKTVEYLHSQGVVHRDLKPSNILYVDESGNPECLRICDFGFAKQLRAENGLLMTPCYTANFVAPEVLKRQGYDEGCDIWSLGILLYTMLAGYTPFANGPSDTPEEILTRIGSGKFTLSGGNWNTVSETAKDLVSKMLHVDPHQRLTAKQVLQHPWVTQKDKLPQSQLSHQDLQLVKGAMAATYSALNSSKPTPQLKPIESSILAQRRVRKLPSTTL
HIPK2, sequence (Q9H2X6 whole entry, species assumed): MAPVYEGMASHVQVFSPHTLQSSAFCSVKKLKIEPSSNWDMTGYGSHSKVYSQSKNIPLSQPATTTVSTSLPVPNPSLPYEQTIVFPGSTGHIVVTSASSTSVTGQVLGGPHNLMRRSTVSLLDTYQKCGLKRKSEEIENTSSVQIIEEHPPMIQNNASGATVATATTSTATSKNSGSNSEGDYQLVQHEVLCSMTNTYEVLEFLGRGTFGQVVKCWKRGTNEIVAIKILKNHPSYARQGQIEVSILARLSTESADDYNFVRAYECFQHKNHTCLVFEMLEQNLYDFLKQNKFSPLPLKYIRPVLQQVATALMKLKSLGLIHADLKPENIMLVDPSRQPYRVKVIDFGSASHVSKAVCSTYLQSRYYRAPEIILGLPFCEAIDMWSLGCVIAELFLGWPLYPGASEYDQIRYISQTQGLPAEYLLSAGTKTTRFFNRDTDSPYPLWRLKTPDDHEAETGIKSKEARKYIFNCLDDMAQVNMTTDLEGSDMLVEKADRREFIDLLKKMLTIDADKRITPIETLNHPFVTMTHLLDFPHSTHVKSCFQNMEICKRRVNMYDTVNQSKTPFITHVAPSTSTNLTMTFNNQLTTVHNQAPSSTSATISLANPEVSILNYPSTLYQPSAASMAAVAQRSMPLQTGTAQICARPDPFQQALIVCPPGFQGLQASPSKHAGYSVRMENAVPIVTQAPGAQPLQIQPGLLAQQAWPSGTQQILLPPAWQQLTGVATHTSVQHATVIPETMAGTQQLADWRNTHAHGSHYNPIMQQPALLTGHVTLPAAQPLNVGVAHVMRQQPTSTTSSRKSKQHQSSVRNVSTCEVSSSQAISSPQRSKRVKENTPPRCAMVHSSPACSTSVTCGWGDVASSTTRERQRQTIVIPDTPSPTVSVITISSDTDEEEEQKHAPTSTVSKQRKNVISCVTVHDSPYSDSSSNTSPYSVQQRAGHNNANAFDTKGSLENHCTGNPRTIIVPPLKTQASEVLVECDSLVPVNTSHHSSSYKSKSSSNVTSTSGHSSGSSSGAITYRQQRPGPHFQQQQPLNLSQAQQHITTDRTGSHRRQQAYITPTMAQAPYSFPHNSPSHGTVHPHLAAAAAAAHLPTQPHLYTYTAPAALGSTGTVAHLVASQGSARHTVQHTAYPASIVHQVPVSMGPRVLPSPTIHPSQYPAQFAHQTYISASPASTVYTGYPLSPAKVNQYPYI
Src, sequence (P12931 whole entry, species assumed): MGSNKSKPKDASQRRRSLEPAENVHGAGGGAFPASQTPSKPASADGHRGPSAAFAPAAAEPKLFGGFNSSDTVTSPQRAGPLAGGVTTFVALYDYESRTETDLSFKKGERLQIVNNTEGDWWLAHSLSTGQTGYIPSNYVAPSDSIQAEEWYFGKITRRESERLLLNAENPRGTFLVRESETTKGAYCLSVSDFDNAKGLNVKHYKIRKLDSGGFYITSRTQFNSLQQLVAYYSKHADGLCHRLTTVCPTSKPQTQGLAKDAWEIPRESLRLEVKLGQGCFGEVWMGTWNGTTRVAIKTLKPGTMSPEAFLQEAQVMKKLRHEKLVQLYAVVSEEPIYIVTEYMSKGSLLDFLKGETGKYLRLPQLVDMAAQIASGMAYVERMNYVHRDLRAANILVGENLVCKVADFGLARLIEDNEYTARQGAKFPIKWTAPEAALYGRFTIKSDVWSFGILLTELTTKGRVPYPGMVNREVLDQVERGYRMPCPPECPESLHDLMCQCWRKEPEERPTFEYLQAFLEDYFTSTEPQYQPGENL
Lck, sequence (P06239 whole entry, species assumed): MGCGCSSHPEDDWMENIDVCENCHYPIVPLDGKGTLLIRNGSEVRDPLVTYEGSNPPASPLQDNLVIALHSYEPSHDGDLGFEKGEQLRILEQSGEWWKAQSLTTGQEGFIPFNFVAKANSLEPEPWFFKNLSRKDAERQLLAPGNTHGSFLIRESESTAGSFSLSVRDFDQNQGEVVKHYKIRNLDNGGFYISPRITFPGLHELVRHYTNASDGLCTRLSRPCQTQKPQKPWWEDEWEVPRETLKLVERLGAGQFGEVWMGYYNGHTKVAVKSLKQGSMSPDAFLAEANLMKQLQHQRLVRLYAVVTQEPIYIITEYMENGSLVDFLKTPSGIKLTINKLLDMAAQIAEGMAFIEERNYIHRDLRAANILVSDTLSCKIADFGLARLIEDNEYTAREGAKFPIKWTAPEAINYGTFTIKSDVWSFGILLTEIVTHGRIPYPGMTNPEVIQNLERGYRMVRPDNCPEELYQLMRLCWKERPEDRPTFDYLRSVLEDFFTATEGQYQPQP
MARK3, sequence (P27448 whole entry, species assumed): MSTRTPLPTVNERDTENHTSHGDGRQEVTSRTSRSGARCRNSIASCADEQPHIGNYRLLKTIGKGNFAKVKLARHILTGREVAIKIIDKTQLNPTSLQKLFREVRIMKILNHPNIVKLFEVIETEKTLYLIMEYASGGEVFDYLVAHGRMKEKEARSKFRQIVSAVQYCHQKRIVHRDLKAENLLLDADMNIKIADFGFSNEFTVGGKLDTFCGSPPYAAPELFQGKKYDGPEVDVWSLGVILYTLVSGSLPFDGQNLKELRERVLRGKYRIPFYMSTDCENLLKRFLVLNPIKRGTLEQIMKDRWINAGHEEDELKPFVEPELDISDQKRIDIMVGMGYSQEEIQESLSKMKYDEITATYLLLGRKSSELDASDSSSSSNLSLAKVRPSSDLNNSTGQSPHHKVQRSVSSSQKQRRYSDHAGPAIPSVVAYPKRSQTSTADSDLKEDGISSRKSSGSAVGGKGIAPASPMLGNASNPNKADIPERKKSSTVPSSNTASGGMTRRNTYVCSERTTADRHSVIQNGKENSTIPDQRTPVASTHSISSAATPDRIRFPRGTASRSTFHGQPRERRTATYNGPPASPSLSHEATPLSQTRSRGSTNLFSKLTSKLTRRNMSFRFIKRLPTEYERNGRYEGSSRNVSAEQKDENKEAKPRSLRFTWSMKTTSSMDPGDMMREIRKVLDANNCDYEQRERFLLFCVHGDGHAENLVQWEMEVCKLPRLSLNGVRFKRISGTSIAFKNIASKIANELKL

Row | Compound | residual kinase activity, RSK1 [1] | residual kinase activity, PDK1 [2] | residual kinase activity, AMPK (hum) [3] | residual kinase activity, MARK3 [4] | residual kinase activity, DYRK1A [5] | residual kinase activity, TBK1 [6] | residual kinase activity, PIM1 [7] | residual kinase activity, EF2K [8] | residual kinase activity, HIPK2 [9] | residual kinase activity, IRAK4 [10] | residual kinase activity, Src [11] | residual kinase activity, Lck [12] | residual kinase activity, SYK [13] | residual kinase activity, VEG-FR [14] | other results
1 | O=C(Nc1nc2cc(O)ccc2s1)c1ccncc1 [Compound 03-11] | 83 | 100 | 98 | 75 | 50 | 80 | 74 | 79 | 67 | 69 | 79 | 93 | 75 | 58 | 
2 | O=C(Nc1nc2ccc(O)cc2s1)c1ccccn1 [Compound 03-12] | 67 | 88 | 90 | 79 | 33 | 68 | 51 | 69 | 18 | 54 | 105 | 82 | 99 | 17 | 
3 | O=C(Nc1nc2cc(O)ccc2s1)c1ccccn1 [Compound 03-13] | 70 | 104 | 71 | 68 | 25 | 73 | 39 | 94 | 43 | 55 | 70 | 77 | 106 | 24 | 
4 | COc1ccc2sc(NC(C)=O)nc2c1 [Compound 03-21] |  |  | 81 |  |  |  |  |  |  |  |  |  |  | 71 | remaining activity at 100 µM [1]: 93%; remaining activity at 100 µM [2]: 115%; remaining activity at 100 µM [4]: 72%; remaining activity at 100 µM [5]: 2%; remaining activity at 100 µM [6]: 81%; remaining activity at 100 µM [7]: 8%; remaining activity at 100 µM [8]: 105%; remaining activity at 100 µM [9]: 25%; remaining activity at 100 µM [10]: 52%; remaining activity at 100 µM [11]: 86%; remaining activity at 100 µM [12]: 109%; remaining activity at 100 µM [13]: 72%
5 | CC(=O)Nc1nc2ccccc2s1 [Compound 03-32] | 86 | 96 | 86 | 85 | 43 | 88 | 79 | 89 | 51 | 65 | 113 | 91 | 116 | 66 | 
6 | O=C(Nc1nc2cc(O)ccc2s1)c1cccnc1 [Compound 03-33] | 73 | 100 | 87 | 85 | 29 | 97 | 25 | 106 | 52 | 42 | 75 | 105 | 86 | 50 | 
7 | O=C(Nc1nc2ccc(O)cc2s1)c1ccccc1 [Compound 03-60] | 28 | 98 | 27 | 33 | 2 | 36 | 35 | 107 | 8 | 22 | 33 | 92 | 64 | 5 | 
8 | CC(=O)Nc1nc2cc(C(F)(F)F)ccc2s1 [Compound 03-73] |  |  | 62 |  |  |  |  |  |  |  |  |  |  | 33 | remaining activity at 100 µM [1]: 89%; remaining activity at 100 µM [2]: 105%; remaining activity at 100 µM [4]: 63%; remaining activity at 100 µM [5]: 22%; remaining activity at 100 µM [6]: 64%; remaining activity at 100 µM [7]: 10%; remaining activity at 100 µM [8]: 109%; remaining activity at 100 µM [9]: 51%; remaining activity at 100 µM [10]: 60%; remaining activity at 100 µM [11]: 74%; remaining activity at 100 µM [12]: 101%; remaining activity at 100 µM [13]: 74%
9 | CC(=O)Nc1nc2cc(C)ccc2s1 [Compound 03-76] | 78 | 93 | 69 | 71 | 23 | 78 | 21 | 110 | 51 | 51 | 79 | 120 | 72 | 50 | 
